Paper PMC9492542, “Brain-restricted mTOR inhibition with binary pharmacology” (Nature, 2022)
Like-named read-outs stand apart in the source and are kept apart here. Blank lines part the entries; values can stand above or below the molecule they belong to.

Key:
[1] = molecular target: T1, FKBP12 (Homo sapiens, UniProt P62942); assay: Competition fluorescence polarization assay with FITC-rapamycin tracer; type: binding
T1 construct: His-tag (HRV 3C cleavable) (cleaved yes); made in house; host or cells: Escherichia coli BL21(DE3)
T1 sequence (P62942 whole entry): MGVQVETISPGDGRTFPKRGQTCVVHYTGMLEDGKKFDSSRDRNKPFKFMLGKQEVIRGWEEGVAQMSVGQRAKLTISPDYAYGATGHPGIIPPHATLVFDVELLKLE
Experimental: Compound binding affinity was determined using a competition fluorescence polarization assay. […] The assay buffer was 20 mM HEPES pH 7.5 and 0.01% Triton X-100. […] Data were fitted to a three-parameter sigmoidal curve to derive IC50 values. Ki of the compounds were calculated using a tool provided by S. Wang’s laboratory (http://www.umich.edu/~shaomengwanglab/software/calc_ki/index.html). Data were plotted in GraphPad Prism 9.0.

[2] = molecular target: T2, mTOR (Homo sapiens, UniProt P42345); assay: In vitro mTOR kinase inhibition assay (SelectScreen Z'-LYTE), with or without 10 µM FKBP12; type: biochemical; settings: for remaining activity at 4.95 pM / remaining activity at 15.2 pM / remaining activity at 45.7 pM / remaining activity at 0.000137 µM / remaining activity at 0.000412 µM / remaining activity at 0.00123 µM / remaining activity at 0.0111 µM / remaining activity at 0.0333 µM / remaining activity at […]: read-out: residual kinase activity (mTOR); for remaining activity at 0.0333 µM: 33.3 nM drug
T2 construct: We performed in vitro kinase assays with purified mTOR protein; purchased SelectScreen Services (Thermo Fisher Scientific)
T2 sequence (P42345 1360-2549 limits assumed): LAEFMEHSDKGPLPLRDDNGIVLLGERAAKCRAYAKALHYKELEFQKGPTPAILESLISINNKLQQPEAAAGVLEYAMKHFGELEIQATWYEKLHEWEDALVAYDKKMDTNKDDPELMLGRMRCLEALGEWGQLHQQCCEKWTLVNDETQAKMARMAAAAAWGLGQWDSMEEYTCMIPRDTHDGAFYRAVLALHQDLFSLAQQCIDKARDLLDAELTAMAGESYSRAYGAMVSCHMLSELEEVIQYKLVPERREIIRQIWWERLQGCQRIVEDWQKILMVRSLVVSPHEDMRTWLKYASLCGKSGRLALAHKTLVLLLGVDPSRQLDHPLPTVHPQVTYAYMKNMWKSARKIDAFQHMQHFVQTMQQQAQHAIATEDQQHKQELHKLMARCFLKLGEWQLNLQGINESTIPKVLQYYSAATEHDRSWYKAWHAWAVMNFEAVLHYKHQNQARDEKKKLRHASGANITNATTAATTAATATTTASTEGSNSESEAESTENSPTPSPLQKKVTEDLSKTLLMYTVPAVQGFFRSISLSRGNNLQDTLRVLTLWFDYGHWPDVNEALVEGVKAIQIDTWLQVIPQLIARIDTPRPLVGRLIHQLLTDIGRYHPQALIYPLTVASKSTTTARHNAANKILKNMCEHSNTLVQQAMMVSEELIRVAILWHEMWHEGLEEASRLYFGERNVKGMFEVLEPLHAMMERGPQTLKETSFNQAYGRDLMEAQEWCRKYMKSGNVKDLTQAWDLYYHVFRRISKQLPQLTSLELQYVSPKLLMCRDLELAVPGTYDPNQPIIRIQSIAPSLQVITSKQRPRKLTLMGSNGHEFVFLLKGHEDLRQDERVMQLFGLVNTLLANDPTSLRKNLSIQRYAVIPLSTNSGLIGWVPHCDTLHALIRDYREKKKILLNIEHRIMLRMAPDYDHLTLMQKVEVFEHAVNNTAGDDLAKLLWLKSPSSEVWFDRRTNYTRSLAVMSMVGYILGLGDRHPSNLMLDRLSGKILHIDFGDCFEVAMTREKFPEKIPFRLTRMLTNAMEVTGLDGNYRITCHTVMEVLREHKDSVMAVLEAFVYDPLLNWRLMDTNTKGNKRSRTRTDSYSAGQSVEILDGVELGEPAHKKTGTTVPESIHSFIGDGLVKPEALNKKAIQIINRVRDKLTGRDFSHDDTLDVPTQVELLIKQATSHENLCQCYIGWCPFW
Experimental: In vitro kinase inhibition assays were performed by SelectScreen Services (Thermo Fisher Scientific) using either Z’-LYTE (mTOR, Src, Csk, EGFR, HER2 and HGK), Adapta (LRRK2) or LanthaScreen (DDR2) assay format (standardized protocols can be accessed on the SelectScreen website: https://www.thermofisher.com/us/en/home/products-and-services/services/custom-services/screening-and-profiling-services/selectscreen-profiling-service/selectscreen-kinase-profiling-service.html. When indicated, recombinant FKBP12 protein was added to the assay mixture to a final concentration of 10 µM.

[3] = recombinant FKBP12, Extended Data Fig. 2, read-out: Kd (FKBP12)

Compound: CO[C@H]1C[C@@H](C)C/C(C)=C/[C@@H](CCCc2ccccn2)C(=O)C[C@H](O)[C@@H](C)[C@@H](/C(C)=C/[C@@H]2CC[C@@H](O)[C@H](OC)C2)OC(=O)[C@@H]2CCCCN2C(=O)C(=O)[C@]2(O)O[C@H]1[C@@H](OC)C[C@H]2C [05-084 (06-039)]
Kd [1, 3]: 3.3 nM

Compound: CCC(C)(C)C(=O)C(=O)N1CCCC[C@H]1C(=O)O[C@H](CCc1ccc(OC)c(OC)c1)c1cccc(NC(=O)CN(C)C)c1 [Compound 01-044]
Kd [1, 3]: 13 nM

Compound: CCC(C)(C)C(=O)C(=O)N1CCCC[C@H]1C(=O)O[C@H](CCc1ccc(OC)c(OC)c1)c1cccc(N(CC(=O)O)CC(=O)O)c1 [Compound 01-060B]
Kd [1, 3]: 75 nM

Compound: CCC(C)(C)C(=O)C(=O)N1CCCC[C@H]1C(=O)O[C@H](CCc1ccc(OC)c(OC)c1)c1cccc(NC(=O)CS)c1 [Compound 02-055]
Kd [1, 3]: 64 nM

Compound: CCC(C)(C)C(=O)C(=O)N1CCCC[C@H]1C(=O)O[C@H](CCc1ccc(OC)c(OC)c1)c1cccc(NC(=O)CCOCCOCCN)c1 [Compound 03-077]
Kd [1, 3]: 44 nM

Compound: CCC(C)(C)C(=O)C(=O)N1CCCC[C@H]1C(=O)O[C@H](CCc1ccc(OC)c(OC)c1)c1cccc(NC(=O)CCOCCN)c1 [Compound 03-084]
Kd [1, 3]: 19 nM

Compound: CCC(C)(C)C(=O)C(=O)N1CCCC[C@H]1C(=O)O[C@H](CCc1ccc(OC)c(OC)c1)c1cccc(NC(=O)Cc2cccc[n+]2[O-])c1 [Compound 03-087]
Kd [1, 3]: 29 nM

Compound: CO[C@H]1C[C@@H](C)C/C(C)=C/[C@@H](C/C=C/C(=O)O)C(=O)C[C@H](O)[C@@H](C)[C@@H](/C(C)=C/[C@@H]2CC[C@@H](O)[C@H](OC)C2)OC(=O)[C@@H]2CCCCN2C(=O)C(=O)[C@]2(O)O[C@H]1[C@@H](OC)C[C@H]2C [Compound 05-012]
Kd [1, 3]: 0.4 nM

Compound: CO[C@H]1C[C@@H](C)C/C(C)=C/[C@@H](CCCSCCN(C)C)C(=O)C[C@H](O)[C@@H](C)[C@@H](/C(C)=C/[C@@H]2CC[C@@H](O)[C@H](OC)C2)OC(=O)[C@@H]2CCCCN2C(=O)C(=O)[C@]2(O)O[C@H]1[C@@H](OC)C[C@H]2C [Compound 05-013]
Kd [1, 3]: 1.4 nM

Compound: CO[C@H]1C[C@@H](C)C/C(C)=C/[C@@H](CCCC(=O)O)C(=O)C[C@H](O)[C@@H](C)[C@@H](/C(C)=C/[C@@H]2CC[C@@H](O)[C@H](OC)C2)OC(=O)[C@@H]2CCCCN2C(=O)C(=O)[C@]2(O)O[C@H]1[C@@H](OC)C[C@H]2C [Compound 05-020]
Kd [1]: 1.5 nM

Compound: CO[C@H]1C[C@@H](C)C/C(C)=C/[C@@H](CCCSC[C@H](N)C(=O)O)C(=O)C[C@H](O)[C@@H](C)[C@@H](/C(C)=C/[C@@H]2CC[C@@H](O)[C@H](OC)C2)OC(=O)[C@@H]2CCCCN2C(=O)C(=O)[C@]2(O)O[C@H]1[C@@H](OC)C[C@H]2C [Compound 05-037]
Kd [1]: 8.7 nM

Compound: CO[C@H]1C[C@@H](C)C/C(C)=C/[C@@H](C/C=C/c2ccccn2)C(=O)C[C@H](O)[C@@H](C)[C@@H](/C(C)=C/[C@@H]2CC[C@@H](O)[C@H](OC)C2)OC(=O)[C@@H]2CCCCN2C(=O)C(=O)[C@]2(O)O[C@H]1[C@@H](OC)C[C@H]2C [Compound 05-050]
Kd [1, 3]: 3.6 nM

Compound: CO[C@H]1C[C@@H](C)C/C(C)=C/[C@@H](C/C=C/c2ccncc2)C(=O)C[C@H](O)[C@@H](C)[C@@H](/C(C)=C/[C@@H]2CC[C@@H](O)[C@H](OC)C2)OC(=O)[C@@H]2CCCCN2C(=O)C(=O)[C@]2(O)O[C@H]1[C@@H](OC)C[C@H]2C [Compound 05-051]
Kd [1, 3]: 1.2 nM

Compound: CO[C@H]1C[C@@H](C)C/C(C)=C/[C@@H](C/C=C/c2cccc[n+]2[O-])C(=O)C[C@H](O)[C@@H](C)[C@@H](/C(C)=C/[C@@H]2CC[C@@H](O)[C@H](OC)C2)OC(=O)[C@@H]2CCCCN2C(=O)C(=O)[C@]2(O)O[C@H]1[C@@H](OC)C[C@H]2C [Compound 05-060]
Kd [1, 3]: 0.6 nM

Compound: CO[C@H]1C[C@@H](C)C/C(C)=C/[C@@H](C/C=C/c2cc[n+]([O-])cc2)C(=O)C[C@H](O)[C@@H](C)[C@@H](/C(C)=C/[C@@H]2CC[C@@H](O)[C@H](OC)C2)OC(=O)[C@@H]2CCCCN2C(=O)C(=O)[C@]2(O)O[C@H]1[C@@H](OC)C[C@H]2C [Compound 05-061]
Kd [1, 3]: 0.2 nM

Compound: CO[C@H]1C[C@@H](C)C/C(C)=C/[C@@H](CCCC(=O)Nc2ccccn2)C(=O)C[C@H](O)[C@@H](C)[C@@H](/C(C)=C/[C@@H]2CC[C@@H](O)[C@H](OC)C2)OC(=O)[C@@H]2CCCCN2C(=O)C(=O)[C@]2(O)O[C@H]1[C@@H](OC)C[C@H]2C [Compound 05-064]
Kd [1]: 0.2 nM

Compound: CC(C)n1nc(-c2ccc3oc(N)nc3c2)c2c(N)ncnc21 [MLN128]
residual kinase activity (mTOR) ([2]; 0.00495 nM drug, +FKBP): 101
remaining activity at 4.95 pM ([2]; 0.00495 nM drug, +FKBP): 103%
residual kinase activity (mTOR) ([2]; 0.00495 nM drug, no FKBP): 101
remaining activity at 4.95 pM ([2]; 0.00495 nM drug, no FKBP): 105%
residual kinase activity (mTOR) ([2]; 0.0152 nM drug, +FKBP): 105
remaining activity at 15.2 pM ([2]; 0.0152 nM drug, +FKBP): 103%
residual kinase activity (mTOR) ([2]; 0.0152 nM drug, no FKBP): 106
remaining activity at 15.2 pM ([2]; 0.0152 nM drug, no FKBP): 101%
residual kinase activity (mTOR) ([2]; 0.0457 nM drug, +FKBP): 105
remaining activity at 45.7 pM ([2]; 0.0457 nM drug, +FKBP): 102%
residual kinase activity (mTOR) ([2]; 0.0457 nM drug, no FKBP): 104
remaining activity at 45.7 pM ([2]; 0.0457 nM drug, no FKBP): 102%
residual kinase activity (mTOR) ([2]; 0.137 nM drug, +FKBP): 101
remaining activity at 0.000137 µM ([2]; 0.137 nM drug, +FKBP): 106%
remaining activity at 0.000137 µM ([2]; 0.137 nM drug, no FKBP): 103%
residual kinase activity (mTOR) ([2]; 0.412 nM drug, +FKBP): 96
remaining activity at 0.000412 µM ([2]; 0.412 nM drug, +FKBP): 97%
residual kinase activity (mTOR) ([2]; 0.412 nM drug, no FKBP): 98
remaining activity at 0.000412 µM ([2]; 0.412 nM drug, no FKBP): 99%
residual kinase activity (mTOR) ([2]; 1.23 nM drug, +FKBP): 83
remaining activity at 0.00123 µM ([2]; 1.23 nM drug, +FKBP): 84%
residual kinase activity (mTOR) ([2]; 1.23 nM drug, no FKBP): 81
remaining activity at 0.00123 µM ([2]; 1.23 nM drug, no FKBP): 84%
remaining activity at 0.0111 µM ([2]; 11.1 nM drug, +FKBP): 19%
residual kinase activity (mTOR) ([2]; 11.1 nM drug, no FKBP): 17
remaining activity at 0.0111 µM ([2]; 11.1 nM drug, no FKBP): 18%
remaining activity at 0.0333 µM ([2]; +FKBP): 6%
remaining activity at 0.0333 µM ([2]; no FKBP): 6%
residual kinase activity (mTOR) ([2]; […] drug, +FKBP): 53
remaining activity at […] ([2]; […] drug, +FKBP): 49%
residual kinase activity (mTOR) ([2]; […] drug, no FKBP): 50
remaining activity at […] ([2]; […] drug, no FKBP): 48%

More lines, in order of falling Kd [1, 3], values ahead:

Kd [1, 3]: 95 nM
Compound: CCC(C)(C)C(=O)C(=O)N1CCCC[C@H]1C(=O)O[C@H](CCc1ccc(OC)c(OC)c1)c1cccc(NC(=O)C[N+](C)(C)C)c1 [Compound 01-025]

Kd [1, 3]: 64 nM
Compound: C=CC(=O)Nc1cccc([C@@H](CCc2ccc(OC)c(OC)c2)OC(=O)[C@@H]2CCCCN2C(=O)C(=O)C(C)(C)CC)c1 [Compound 02-014]

Kd [1, 3]: 46 nM
Compound: CCC(C)(C)C(=O)C(=O)N1CCCC[C@H]1C(=O)O[C@H](CCc1ccc(OC)c(OC)c1)c1cccc(NCC(=O)O)c1 [Compound 01-060A]

Kd [1, 3]: 38 nM
Compound: CCC(C)(C)C(=O)C(=O)N1CCCC[C@H]1C(=O)O[C@H](CCc1ccc(OC)c(OC)c1)c1cccc(OCC(=O)O)c1 [Compound 01-041]

Kd [1, 3]: 38 nM
Compound: CCC(C)(C)C(=O)C(=O)N1CCCC[C@H]1C(=O)O[C@H](CCc1ccc(OC)c(OC)c1)c1cccc(NC(=O)CNC(=N)N)c1 [Compound 01-065]

Kd [1, 3]: 36 nM
Compound: CCC(C)(C)C(=O)C(=O)N1CCCC[C@H]1C(=O)O[C@H](CCc1ccc(OC)c(OC)c1)c1cccc(NCCN)c1 [Compound 02-032]

Kd [1, 3]: 31 nM
Compound: CCC(C)(C)C(=O)C(=O)N1CCCC[C@H]1C(=O)O[C@H](CCc1ccc(OC)c(OC)c1)c1cccc(NC(=O)Cc2ccccn2)c1 [Compound 03-083]

Kd [1, 3]: 21 nM
Compound: CCC(C)(C)C(=O)C(=O)N1CCCC[C@H]1C(=O)O[C@H](CCc1ccc(OC)c(OC)c1)c1cccc(NC(=O)CN)c1 [Compound 01-040]

Kd [1, 3]: 21 nM
Compound: CCC(C)(C)C(=O)C(=O)N1CCCC[C@H]1C(=O)O[C@H](CCc1ccc(OC)c(OC)c1)c1cccc(NC(=O)CNN)c1 [Compound 01-070]

Kd [1, 3]: 15 nM
Compound: CCC(C)(C)C(=O)C(=O)N1CCCC[C@H]1C(=O)O[C@H](CCc1ccc(OC)c(OC)c1)c1cccc(NC(=O)CN2CCOCC2)c1 [Compound 01-043]

Kd [1, 3]: 13 nM
Compound: CCC(C)(C)C(=O)C(=O)N1CCCC[C@H]1C(=O)O[C@H](CCc1ccc(OC)c(OC)c1)c1cccc(NC(=O)CN2CCN(C)CC2)c1 [Compound 01-072]

Kd [1, 3]: 9.4 nM
Compound: CCC(C)(C)C(=O)C(=O)N1CCCC[C@H]1C(=O)O[C@H](CCc1ccc(OC)c(OC)c1)c1cccc(OCCN)c1 [Compound 01-038]

Kd [1, 3]: 6 nM
Compound: CCC(C)(C)C(=O)C(=O)N1CCCC[C@H]1C(=O)O[C@H](CCc1ccc(OC)c(OC)c1)c1cccc(NC(=O)CN=[N+]=[N-])c1 [Compound 02-096]

Kd [1, 3]: 2.5 nM
Compound: CO[C@H]1C[C@@H](C)C/C(C)=C/[C@@H](CCCSCCNC(=O)CNc2ccccn2)C(=O)C[C@H](O)[C@@H](C)[C@@H](/C(C)=C/[C@@H]2CC[C@@H](O)[C@H](OC)C2)OC(=O)[C@@H]2CCCCN2C(=O)C(=O)[C@]2(O)O[C@H]1[C@@H](OC)C[C@H]2C [Compound 05-028]

Kd [1, 3]: 0.7 nM
Compound: CO[C@H]1C[C@@H](C)C/C(C)=C/[C@@H](CCCSCCN)C(=O)C[C@H](O)[C@@H](C)[C@@H](/C(C)=C/[C@@H]2CC[C@@H](O)[C@H](OC)C2)OC(=O)[C@@H]2CCCCN2C(=O)C(=O)[C@]2(O)O[C@H]1[C@@H](OC)C[C@H]2C [Compound 05-011]
